Assay results reported in patent US20190388377A1, “COMPOSITIONS AND METHODS FOR THE TREATMENT OF LIVER DISEASES AND DISORDERS” (AXCELLA HEALTH INC., priority 2018, published 2019).

Key:
IL-6 = IL-6 secretion by ELISA, LPS-treated primary human M1 macrophages, Example 5; assay type: cell-based
Protocol: Primary human PMBC derived macrophages were seeded on day 0 at 3.0E4 cells per well in 96-well microplates (ThermoFisher) in Dulbecco's Modified Eagle Medium (DMEM) (Gibco) supplemented with penicillin-streptomycin (Hyclone) and 10% heat inactivated fetal bovine serum (HI-FBS) (Atlanta Bio) and incubated overnight at 37° C., 5% CO2. On day 1, cells were washed once with 150 uL per well DPBS (Gibco) and treated with 75 uL of: • a. Amino acid free DMEM (US Biologicals) containing a defined custom amino acid concentration based on the mean physiological concentrations in blood based on values published in the Human Metabolome Database (HMDB), with 6 mM glucose, 1 mM sodium pyruvate, 10 mM HEPES, 0.2% primocin (InVivoGen); or • b. The same media described above with supplemental amino acid and amino acid combination treatments at various concentrations. […]
On day 3, the supernatant was collected and immediately frozen in −80° C. freezer. Cells were washed once with 150 uL DPBS and viability was assessed using the WST-8 Cell Proliferation Cytotoxicity Assay (Dojindo). […] Protein levels in supernatant samples were analyzed by ELISA for IL-6 and TNFa using commercially available kits (R&D Systems) according to manufacturer-supplied protocols.

M1 macrophages = assay: Seahorse XF real-time ATP rate assay in LPS-treated M1 macrophages, Example 6; assay type: cell-based, human
Protocol: Primary human PMBC derived macrophages were seeded on day 0 at 2.0E4 cells per well in a Seahorse […] Cell Culture Microplate V3-PS TC-Treated plate (Agilent) coated with 0.1 mg/mL Poly-D-Lysine (Trevigen) in Dulbecco's Modified Eagle Medium (DMEM) (Gibco) supplemented with penicillin-streptomycin (Gibco) and 10% heat inactivated fetal bovine serum (HI-FBS) (Atlanta Bio) and incubated overnight at 37° C., 5% CO2. On day 1, cells were washed once with 150 uL per well DPBS (Gibco) and treated with 100 uL of: • a. Amino acid free DMEM (US Biologicals) containing a defined custom amino acid concentration based on the mean physiological concentrations in blood based on values published in the Human Metabolome Database (HMDB), with 6 mM glucose, 1 mM sodium pyruvate, 10 mM HEPES (Sigma), and penicillin-streptomycin (Gibco); or • b. The same media described above with supplemental amino acid and amino acid combination treatments at various concentrations. […] Control wells were treated with 0.15 ng/mL LPS, or phosphate buffered saline (PBS). On day 3, the supernatant was collected and immediately frozen in a -80° C. freezer. Cells were analyzed for total ATP production rate, glycolytic ATP production rate, and mitochondrial ATP production rate using a commercially available kit (Agilent Seahorse XF Real-Time ATP Rate Assay Kit) according to manufacturer-supplied protocol on a Seahorse XFe instrument. A custom assay medium (amino acid free DMEM/F12 without phenol red or sodium bicarbonate (US Biologicals) containing a defined custom amino acid concentration based on the mean physiological concentrations in blood based on values published in the Human Metabolome Database (HMDB), with 10 mM XF glucose (Agilent), 1 mM XF pyruvate (Agilent), and 5 mM HEPES (Sigma) was used. Buffer factor for the custom assay medium was determined according to manufacturer-supplied protocol. Following the assay, cells were washed twice with PBS and fixed with 4% paraformaldehyde.

[1] = tested on: alpha smooth muscle actin (αSMA); assay: HSC activation by alpha SMA immunostaining, TGFβ1-stimulated hepatic stellate cells; assay type: cell-based, human
Protocol: Primary human hepatic stellate cells were obtained from Samsara Sciences. Cells from three different donors were grown in Complete HSC Medium to ˜80% confluence in T75 or T150 flasks below passage 10 were seeded into sterile, collagen I coated, 96-well optical plastic microplates (ThermoScientific) and incubated overnight at 37° C., 5% CO2 in a humidified incubator in DMEM with 2% Fetal Bovine Serum and 1% Antimycotic. […] After 24 hours of stimulus, supernatant was removed and used to measure Procollagen III and cells were then washed and fixed with 4% paraformaldehyde for further staining.
Procollagen III, an important biomarker of fibrosis was measured by ELISA (Human PCIII Elisa Kit, G-Biosciences) following the manufacturer's recommendations. Fixed cells with 4% paraformaldehyde were permeabilized with 0.1% Triton X-100 then immunostained for alpha SMA and labeled for EdU incorporation.
Cells were imaged using ImageXpress micro confocal high content imager (Molecular Devices). […] Image analysis was performed using MetaXpress version 6.2.3.733 (Molecular Devices).
Fixed cells immunostained for alpha smooth muscle actin (αSMA) were analyzed and stained area was normalized to total nuclei count. Fold change were calculated relative to the baseline amino acid (1×HMDB) condition stimulated with 3 ng/mL TGFβ1.

[2] = 30× LIRQNacSCar (7.5 mM Nac and Car) or 7.5 mM Nac vs LPS vehicle control

CC(=O)N[C@@H](CS)C(=O)O [Nac, N-acetylcysteine]
LPS-stimulated IL-6 secretion (in words) (IL-6): decreased LPS-stimulated IL-6 and TNFa secretion
glycolytic ATP production rate (in words) (M1 macrophages; [2]): significantly decreased glycolytic, mitochondrial, and total ATP rate measurements
mitochondrial ATP production rate (in words) (M1 macrophages; [2]): significantly decreased glycolytic, mitochondrial, and total ATP rate measurements
total ATP rate (in words) (M1 macrophages; [2]): significantly decreased glycolytic, mitochondrial, and total ATP rate measurements
Glycolytic ATP Rate, Median Fold Change from Vehicle (Log2) (M1 macrophages; LPS 0.15 ng/mL, 7.5 mM): −0.461 Log2
Mitochondrial ATP Rate, Median Fold Change from Vehicle (Log2) (M1 macrophages; LPS 0.15 ng/mL, 7.5 mM): −0.196 Log2
Total ATP Rate, Median Fold Change from Vehicle (Log2) (M1 macrophages; LPS 0.15 ng/mL, 7.5 mM): −0.2744 Log2
alpha SMA stained area (in words) [1]: reduced the alpha SMA stained area at a high level
